According to patent US20260091026A1, “METHODS OF TREATING INFLAMMATORY DISEASES” (INTERLINE THERAPEUTICS, INC., priority 2023, published 2026):

Legend:
[1] = target: T1, RIPK2 (KD)/XIAP (BIR2) (Homo sapiens, UniProt O43353); test: RIPK2-XIAP binding competition PPI assay (TR-FRET); conditions: for Emax: 50 nM of GSK583 = -100% activity, read-out: PPI Amax; for IC50: GST-RIPK2 / His-XIAP (BIR2)-avi, 120 min at 23° C.
T1 construct: made in house; host or cells: baculovirus-infected Sf9 cells
Description: The ability of selected compounds of Formula (I) to inhibit the binding of an His-XIAP (BIR2)-avi fusion protein to a GST-RIPK2 fusion protein was quantified employing the TR-FRET-based competition assay as described in the following paragraphs.
Recombinant fusion protein of N-terminal Glutathione-S-Transferase (GST) and a fragment of human RIPK2 (amino acids 1-310 of accession number 043353), expressed in baculovirus infected Sf9 cells, purified via glutathione affinity chromatography, was used as GST-RIPK2 fusion protein. Recombinant fusion protein of N-terminal 6xHistidine (His), a fragment of human XIAP (amino acids 152-231 of accession number P98170), and C-terminal avi tag, expressed in baculovirus infected Sf9 cells, purified via Nickel NTA affinity chromatography, was used as the His-XIAP (BIR2)-avi fusion protein.
For the assay, a working solution of 1 nM GST-RIPK2, 25 nM His-XIAP (BIR2)-avi, 6 nM Anti-His-XL665 […] (Revvity Catalogue No. 61HISXLB), and 0.5 nM Anti-GST-Tb(Revvity Catalogue No. 61GSTTLB) in 25 mM Tris-HCl 7.5, 0.5 mM ethylene glycol-bis(2-aminoethylether)-N,N,N′,N′-tetraacetic acid (EGTA), 10 mM magnesium chloride (MgCl2), 2.5 mM dithiothreitol (DTT), 0.01% (w/v) bovine serum albumin (BSA), 0.005% (w/v) Pluronic F-127 (Sigma), 0.5 mM sodium ortho-vanadate, 5 mM-Glycerophosphate disodium salt hydrate (BGP) was prepared. 50 nL of a 100-fold concentrated solution of each test compound in DMSO was dispensed via acoustic dispensing into a white low volume 384-well microtiter plate (Perkin Elmer Catalogue No. 6008280). Subsequently, 5 μL of the assay working solution were added.
The resulting mixture was incubated 120 min at 23° C. Subsequently, the amount of complex formed by the GST-RIPK2, XIAP (BIR2)-avi, Anti-His-XL665, and Anti-GST-Tb was evaluated by measurement of the resonance energy transfer from the Tb-cryptate to the XL665. Therefore, the fluorescence emissions at 520 nm and 665 nm after excitation at 337 nm were measured in a TR-FRET reader, e.g. a Pherastar FS(BMG Labtechnologies, Offenburg, Germany) or an Envision (PerkinElmer). The ratio of the emissions at 665 nm and at 520 nm was taken as the measure of the amount of the complex. The data were normalized (assay reaction without inhibitor=0% activity, 50 nM of GSK583=−100% activity).

[2] = tested on: THP1-Dual cells, NF-κB pathway (SEAP); test: THP-1 Dual cell SEAP assay (L18-MDP stimulated); assay type: cell-based; conditions: Homo sapiens, 10 ng/mL L18-MDP, 20-24 h, SEAP readout, read-out: IFNγ THP1 IC50
Procedure: THP1-Dual™ cells (InvivoGen Cat #thpd-nfis) allow simultaneous assessment of the NF-κB pathway, by monitoring the activity of secreted embryonic alkaline phosphatase (SEAP) as well as the IRF pathway, by assessing the activity of a secreted luciferase (Lucia). Cells were cultured according to manufacturers' recommendations. For the assay, cell concentration was adjusted to 7.14×10^5 cells/mL in assay media (RPMI 1640, 2 mM L-Glutamine, 25 mM HEPES, 10% fetal bovine serum (heat-inactivated for 30 min at 56° C.), Pen-Strep (100 U/mL)) and 35 μL of cell suspension (˜25,000 cells) per well were added to a flat bottom 384-well plate (white opaque). Plate was centrifuged at 300 g for 2 min, compounds were added in serial dilution series according to the plate layout (volumes ˜500 nL-0.0152 nL) and plate was incubated at 37° C. in 5% CO2 for 30 min. Using assay media, a L18-MDP stock solution, that results in a final concentration of 10 ng/mL L18-MDP in each well when adding 15 μL to each well, was prepared. 15 μL of L18-MDP stock solution was added to each well, while 15 μL of assay media was added to the negative control wells. Plates were subsequently incubated at 37° C. in 5% CO2 overnight (20-24 h).
For the SEAP assay: without disturbing the cells at the bottom of the well, 15 μL supernatant was transferred to a clear 384-well flat bottom plate and 35 μL QUANTI-Blue Solution per well was added. Following a 2 h incubation at 37° C., the optical density (OD) was measured at 620-655 nm using a microplate reader (PheraStar FS microplate reader with protocol for OD 620-655 nm).
Values of media-only wells were subtracted and % inhibition for each compound concentration relative to the DMSO/L18-MDP-treated controls was calculated. Inhibition values+/−SD were fitted by non-linear regression using Prism software (GraphPad PRISM Software) to calculate IC50 values.

T1 sequence (O43353 1-310): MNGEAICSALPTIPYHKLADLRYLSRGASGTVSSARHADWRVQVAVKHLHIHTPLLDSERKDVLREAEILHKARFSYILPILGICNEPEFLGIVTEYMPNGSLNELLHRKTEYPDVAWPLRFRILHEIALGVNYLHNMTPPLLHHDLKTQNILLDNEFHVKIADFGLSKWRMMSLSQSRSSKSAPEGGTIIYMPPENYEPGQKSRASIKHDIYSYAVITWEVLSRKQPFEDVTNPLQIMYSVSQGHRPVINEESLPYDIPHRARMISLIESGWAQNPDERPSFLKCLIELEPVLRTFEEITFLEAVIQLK

| SMILES | Emax [1] [%] | IC50 [1] [nM] | IC50 [2] [nM] |
| --- | --- | --- | --- |
| COc1cc2ncc(-c3cc(C(=O)NCC4CCCCC4)n(C)n3)n2cc1S(=O)(=O)C(C)(C)C [Example 41, 3-(6-(tert-butylsulfonyl)-7-methoxyimidazo[1,2-a]pyridin-3-yl)-N-(cyclohexylmethyl)-1-methyl-1H-pyrazole-5-carboxamide] | ≥ 80 | 100 to 1000 | > 2500 |
| COc1cc2ncc(-c3cc(C(=O)N[C@H](C)c4ccccn4)n(C)n3)n2cc1S(=O)(=O)C(C)(C)C [Example 42, (R)-3-(6-(tert-butylsulfonyl)-7-methoxyimidazo[1,2-a]pyridin-3-yl)-1-methyl-N-(1-(pyridin-2-yl)ethyl)-1H-pyrazole-5-carboxamide] | ≥ 80 | 10 to 100 | 100 to 500 |
| COc1cc2ncc(-c3cc(C(=O)NCc4[nH]ncc4C)n(C)n3)n2cc1S(=O)(=O)C(C)(C)C [Example 43, 3-(6-(tert-butylsulfonyl)-7-methoxyimidazo[1,2-a]pyridin-3-yl)-1-methyl-N-((4-methyl-1H-pyrazol-5-yl)methyl)-1H-pyrazole-5-carboxamide] | ≥ 80 | 100 to 1000 | > 2500 |
| COc1cc2ncc(-c3cc(C(=O)NCc4cn(C)cn4)n(C)n3)n2cc1S(=O)(=O)C(C)(C)C [Example 44, 3-(6-(tert-butylsulfonyl)-7-methoxyimidazo[1,2-a]pyridin-3-yl)-1-methyl-N-((1-methyl-1H-imidazol-4-yl)methyl)-1H-pyrazole-5-carboxamide] | ≥ 80 | 100 to 1000 | > 2500 |
| COc1cc2ncc(-c3cc(C(=O)NCc4cc(C)n[nH]4)n(C)n3)n2cc1S(=O)(=O)C(C)(C)C [Example 45, 3-(6-(tert-butylsulfonyl)-7-methoxyimidazo[1,2-a]pyridin-3-yl)-1-methyl-N-((3-methyl-1H-pyrazol-5-yl)methyl)-1H-pyrazole-5-carboxamide] | ≥ 80 | 10 to 100 | > 2500 |
| COc1cc2ncc(-c3cc(C(=O)NCc4ccc(F)cn4)n(C)n3)n2cc1S(=O)(=O)C(C)(C)C [Example 46, 3-(6-(tert-butylsulfonyl)-7-methoxyimidazo[1,2-a]pyridin-3-yl)-N-((5-fluoropyridin-2-yl)methyl)-1-methyl-1H-pyrazole-5-carboxamide] | ≥ 80 | 100 to 1000 | > 2500 |
| COc1cc2ncc(-c3cc(C(=O)N[C@H](C)c4ccccn4)n(C)n3)n2cc1C1(F)CCN(C)CC1 [Example 47, (R)-3-(6-(4-fluoro-1-methylpiperidin-4-yl)-7-methoxyimidazo[1,2-a]pyridin-3-yl)-1-methyl-N-(1-(pyridin-2-yl)ethyl)-1H-pyrazole-5-carboxamide] | ≥ 80 | 10 to 100 | 500 to 2500 |
| COc1cc2ncc(-c3cc(C(=O)N[C@H](C)c4ccc(F)cn4)n(C)n3)n2cc1S(=O)(=O)C(C)(C)C [Example 48, (R)-3-(6-(tert-butylsulfonyl)-7-methoxyimidazo[1,2-a]pyridin-3-yl)-N-(1-(5-fluoropyridin-2-yl)ethyl)-1-methyl-1H-pyrazole-5-carboxamide] | ≥ 80 | 10 to 100 | 500 to 2500 |
| COc1cc2ncc(-c3cc(C(=O)NCc4ncccc4F)n(C)n3)n2cc1S(=O)(=O)C(C)(C)C [Example 49, 3-(6-(tert-butylsulfonyl)-7-methoxyimidazo[1,2-a]pyridin-3-yl)-N-((3-fluoropyridin-2-yl)methyl)-1-methyl-1H-pyrazole-5-carboxamide] | ≥ 80 | 10 to 100 | 500 to 2500 |
| COc1cc2ncc(-c3cc(C(=O)N[C@H](C)c4ncccc4F)n(C)n3)n2cc1S(=O)(=O)C(C)(C)C [Example 50, (R)-3-(6-(tert-butylsulfonyl)-7-methoxyimidazo[1,2-a]pyridin-3-yl)-N-(1-(3-fluoropyridin-2-yl)ethyl)-1-methyl-1H-pyrazole-5-carboxamide] | ≥ 80 | 10 to 100 | 100 to 500 |
| COc1cc2ncc(-c3cc(C(=O)N[C@@H](C)c4ncccc4F)n(C)n3)n2cc1S(=O)(=O)C(C)(C)C [Example 51, (S)-3-(6-(tert-butylsulfonyl)-7-methoxyimidazo[1,2-a]pyridin-3-yl)-N-(1-(3-fluoropyridin-2-yl)ethyl)-1-methyl-1H-pyrazole-5-carboxamide] | 55 to 80 | > 1000 | > 2500 |
| COc1cc2ncc(-c3cc(C(=O)NCc4cccc(F)n4)n(C)n3)n2cc1S(=O)(=O)C(C)(C)C [Example 52, 3-(6-(tert-butylsulfonyl)-7-methoxyimidazo[1,2-a]pyridin-3-yl)-N-((6-fluoropyridin-2-yl)methyl)-1-methyl-1H-pyrazole-5-carboxamide] | ≥ 80 | 100 to 1000 | > 2500 |
| COc1cc2ncc(-c3cc(C(=O)NCc4cc(F)ccn4)n(C)n3)n2cc1S(=O)(=O)C(C)(C)C [Example 53, 3-(6-(tert-butylsulfonyl)-7-methoxyimidazo[1,2-a]pyridin-3-yl)-N-((4-fluoropyridin-2-yl)methyl)-1-methyl-1H-pyrazole-5-carboxamide] | ≥ 80 | 100 to 1000 | > 2500 |
| COc1cc2ncc(-c3cc(C(=O)NCc4ncc(F)cc4F)n(C)n3)n2cc1S(=O)(=O)C(C)(C)C [Example 54, 3-(6-(tert-butylsulfonyl)-7-methoxyimidazo[1,2-a]pyridin-3-yl)-N-((3,5-difluoropyridin-2-yl)methyl)-1-methyl-1H-pyrazole-5-carboxamide] | ≥ 80 | 100 to 1000 | 500 to 2500 |
| COc1cc2ncc(-c3cc(C(=O)NC4(c5ncccn5)CC4)n(C)n3)n2cc1S(=O)(=O)C(C)(C)C [Example 55, 3-(6-(tert-butylsulfonyl)-7-methoxyimidazo[1,2-a]pyridin-3-yl)-1-methyl-N-(1-(pyrimidin-2-yl)cyclopropyl)-1H-pyrazole-5-carboxamide] | 30 to 55 | > 1000 | > 2500 |
| COc1cc2ncc(-c3cc(C(=O)N[C@H](C)c4cn(C)cn4)n(C)n3)n2cc1S(=O)(=O)C(C)(C)C [Example 56, (R)-3-(6-(tert-butylsulfonyl)-7-methoxyimidazo[1,2-a]pyridin-3-yl)-1-methyl-N-(1-(1-methyl-1H-imidazol-4-yl)ethyl)-1H-pyrazole-5-carboxamide] | ≥ 80 | 100 to 1000 | > 2500 |
| COc1cc2ncc(-c3cc(C(=O)N[C@@H](C)c4cn(C)cn4)n(C)n3)n2cc1S(=O)(=O)C(C)(C)C [Example 57, (S)-3-(6-(tert-butylsulfonyl)-7-methoxyimidazo[1,2-a]pyridin-3-yl)-1-methyl-N-(1-(1-methyl-1H-imidazol-4-yl)ethyl)-1H-pyrazole-5-carboxamide] | ≥ 80 | > 1000 | > 2500 |
